ChEMBL document CHEMBL3992546, “Discovery and optimization of benzimidazole derivatives as a novel chemotype of farnesoid X receptor (FXR) antagonists” (Bioorg Med Chem, 2017)
Activity calls are given as the source filed them. The calls are words filed in the database; no cut-off is given here.

Assays:
Bile acid receptor = target: T1, Bile acid receptor (Homo sapiens, UniProt Q96RI1); assay: Inhibition of GW4064-induced fluorecein-labeled SRC2-2 coactivator recruitment in GST-tagged FXR LBD (unknown origin) by Lanthascreen TR-FRET assay
T1 sequence (Q96RI1 whole entry): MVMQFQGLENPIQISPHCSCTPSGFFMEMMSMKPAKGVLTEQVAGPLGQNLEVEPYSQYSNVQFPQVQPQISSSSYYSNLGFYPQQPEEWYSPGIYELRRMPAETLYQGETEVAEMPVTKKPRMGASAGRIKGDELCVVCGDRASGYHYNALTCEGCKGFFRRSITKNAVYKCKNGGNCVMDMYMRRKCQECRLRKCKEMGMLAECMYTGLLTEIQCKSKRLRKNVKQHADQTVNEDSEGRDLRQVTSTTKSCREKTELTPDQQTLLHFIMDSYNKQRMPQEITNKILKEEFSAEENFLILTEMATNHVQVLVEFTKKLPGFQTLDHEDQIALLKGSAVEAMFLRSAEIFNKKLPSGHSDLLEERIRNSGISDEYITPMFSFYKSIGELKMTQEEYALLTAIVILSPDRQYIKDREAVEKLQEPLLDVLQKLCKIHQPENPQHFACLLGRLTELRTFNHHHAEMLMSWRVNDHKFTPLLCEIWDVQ

[1] = Antagonist activity at human FXRalpha expressed in human Hep3B cells assessed as inhibition of CDCA-induced FXR response element driven luciferase activity after 24 hrs; format: cell-based
[2] = target: T2, Retinoic acid receptor RXR-alpha (Homo sapiens) (UniProt P19793); assay: Antagonist activity at human RXRalpha expressed in human Hep3B cells assessed as inhibition of 9-cis-retinoic acid-induced RXR response element driven luciferase activity at 100 uM after 24 hrs; format: cell-based
T2 sequence (whole entry): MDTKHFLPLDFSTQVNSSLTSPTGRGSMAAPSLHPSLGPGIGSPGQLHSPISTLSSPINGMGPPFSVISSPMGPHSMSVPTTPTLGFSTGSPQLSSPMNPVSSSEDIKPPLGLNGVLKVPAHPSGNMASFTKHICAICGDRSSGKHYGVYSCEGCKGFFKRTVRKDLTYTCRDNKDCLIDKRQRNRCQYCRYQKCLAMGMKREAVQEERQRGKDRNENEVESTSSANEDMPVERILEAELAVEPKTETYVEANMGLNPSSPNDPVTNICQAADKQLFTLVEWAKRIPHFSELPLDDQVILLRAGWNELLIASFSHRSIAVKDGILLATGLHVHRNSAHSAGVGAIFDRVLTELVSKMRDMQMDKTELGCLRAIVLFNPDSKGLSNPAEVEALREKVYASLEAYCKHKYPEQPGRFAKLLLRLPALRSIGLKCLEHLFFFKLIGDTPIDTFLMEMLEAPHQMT

[3] = target: T3, Bile acid receptor (Homo sapiens) (UniProt Q96RI1); assay: Antagonist activity at FXR in human Hep3B cells assessed as inhibition of CDCA-induced SHP expression level at 0.2 to 5 uM after 24 hrs by RT-PCR method; format: cell-based
T3 sequence (whole entry): T1 sequence (Q96RI1 whole entry)

[4] = target: T3, Bile acid receptor (Homo sapiens); assay: Antagonist activity at FXR in human Hep3B cells assessed as inhibition of CDCA-induced decrease in CYP7A1 expression level at 0.2 to 5 uM after 24 hrs by RT-PCR method; format: cell-based
[5] = Homo sapiens, Hep3B, 24 h, read-out: IC50

Row | Structure (SMILES) | IC50 (Bile acid receptor) | IC50 [1, 5] | further results
1 | CC(C)[C@@H](c1nc2ccc(C(=O)O)cc2n1C)N1C(=O)CN(c2ccc(Oc3ccccc3)cc2)C1=O | 174 µM | 10.1 µM | 
2 | C[C@@H](c1nc2ccc(C(=O)O)cc2n1C)N1C(=O)CN(c2ccc(Oc3ccccc3)cc2)C1=O | 10.4 µM | > 300 µM | 
3 | CC(C)C[C@@H](c1nc2ccc(C(=O)O)cc2n1C)N1CC(=O)N(c2ccc(Oc3ccccc3)cc2)CC1=O | 417 µM |  | IC50 [1]: Not Active
4 | Cn1c([C@@H](Cc2ccccc2)N2C(=O)CN(c3ccc(Oc4ccccc4)cc3)C2=O)nc2ccc(C(=O)O)cc21 | 87.5 µM | 13.9 µM | 
5 | CC(C)C[C@@H](c1nc2ccc(C(=O)O)cc2n1C)N1CCN(c2ccc(Oc3ccccc3)cc2)C1=O | 28.5 µM | 5.7 µM | 
6 | COc1ccc(Oc2ccc(N3CC(=O)N([C@@H](CC(C)C)c4nc5ccc(C(=O)O)cc5n4C)C3=O)cc2)cc1 | 75.3 µM | 4.5 µM | 
7 | CC(C)C[C@@H](c1nc2ccc(C(=O)O)cc2n1C)N1C(=O)CN(c2ccc(OC3CCCCC3)cc2)C1=O | 126 µM | 55.2 µM | 
8 | CC(C)C[C@@H](c1nc2ccc(C(=O)O)cc2n1C)N1C(=O)N(c2ccc(Oc3ccccc3)cc2)C(C)(C)C1=O | 105 µM | 24.4 µM | 
9 | CC(C)C[C@@H](c1nc2ccc(C(=O)O)cc2n1C)N1C(=O)CN(c2cccc(Oc3ccccc3)c2)C1=O | 18.2 µM | 9.9 µM | 
10 | C/C=C1\C(=O)C[C@H]2[C@@H]3CCC4=CC(=O)CC[C@]4(C)[C@H]3CC[C@]12C [GUGGULSTERONE] |  | 2 µM | 
11 | Cc1ccc2nc([C@H](CC3CCCCC3)N3C(=O)CN(c4ccc(Oc5ccccc5)cc4)C3=O)n(C)c2c1 | 126 µM | 0.0012 µM | inhibition [2]: inactive; inhibition [3]: Active; inhibition [4]: Active
12 | Cn1c([C@H](CC2CCCCC2)N2C(=O)CN(c3ccc(Oc4ccccc4)cc3)C2=O)nc2ccc(C(=O)O)cc21 | 24.4 µM | 2 µM | 
13 | CC[C@H](C)[C@@H](c1nc2ccc(C(=O)O)cc2n1C)N1C(=O)CN(c2ccc(Oc3ccccc3)cc2)C1=O | 102 µM | 3.8 µM | 
14 | Cc1ccc2nc([C@H](CC(C)C)N3C(=O)CN(c4ccc(Oc5ccccc5)cc4)C3=O)n(C)c2c1 | 65.6 µM | 0.175 µM | 
15 | CC(C)C[C@@H](c1nc2ccc(C(=O)O)cc2n1C)N1C(=O)CN(c2ccc(Oc3ccc(Cl)cc3)cc2)C1=O | 2.56 µM | 4.1 µM | 
16 | CC(C)C[C@@H](c1nc2ccc(C(=O)O)cc2n1C)N1C(=O)CN(c2ccc(-c3ccccc3)cc2)C1=O | 23.1 µM | 28.1 µM | 
17 | Cn1c([C@@H](N2C(=O)CN(c3ccc(Oc4ccccc4)cc3)C2=O)C(C)(C)C)nc2ccc(C(=O)O)cc21 | 77.1 µM | 6.3 µM | 
18 | CC(C)C[C@H](c1nc2ccc(C(=O)O)cc2n1C)N1C(=O)CN(c2ccc(Oc3ccccc3)cc2)C1=O | 6.6 to 66.6 µM | 33.6 µM | 
19 | CC(C)C[C@@H](c1nc2cc(C(=O)O)ccc2n1C)N1C(=O)CN(c2ccc(Oc3ccccc3)cc2)C1=O | 113 µM | 18.2 µM | 
20 | CC(C)[C@H](c1nc2ccc(C(=O)O)cc2n1C)N1C(=O)CN(c2ccc(Oc3ccccc3)cc2)C1=O | 118 µM | 100 µM | 
21 | CC(C)C[C@@H](c1nc2ccc(C(=O)O)cc2n1C)N1C(=O)CN(c2ccc(F)cc2)C1=O | 399 µM |  | IC50 [1]: Not Active
22 | CC[C@@H](c1nc2ccc(C(=O)O)cc2n1C)N1C(=O)CN(c2ccc(Oc3ccccc3)cc2)C1=O | 209 µM | 24.8 µM | 
23 | CC(C)C[C@@H](c1nc2ccc(C(=O)O)cc2n1C)N1C(=O)CN(c2ccc(Oc3ccccc3)cc2)C1=O | 43.4 µM | 5.6 µM | 
24 | Cn1c([C@H](Cc2ccccc2)N2C(=O)CN(c3ccc(Oc4ccccc4)cc3)C2=O)nc2ccc(C(=O)O)cc21 | 35.2 µM | 6.4 µM | 
